# ChEMBL document CHEMBL1201862, “PubChem BioAssay data set” (2004)
#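 48-hour exposure; five concentrations; linearly interpolated endpoints. Here, GI50 denotes the concentration required for 50% inhibition of growth.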 The source made the active and inactive calls. Cut-off read from the data, not from the text of the source: active = GI50 up to about 1.1 µM and inactive = higher.
# Experiments:
# Test in all cases: growth of human tumour cells (NCI), 48 h
# A549 = tested on: A549
# ACHN = tested on: ACHN
# BT-549 = tested on: BT-549
# CAKI-1 = tested on: CAKI-1
# DU-145 = tested on: DU-145
# HCT-116 = tested on: HCT-116
# HCT-15 = tested on: HCT-15
# HOP-92 = tested on: HOP-92
# Hs-578T = tested on: Hs-578T
# NCI-H23 = tested on: NCI-H23
# NCI/ADR-RES = tested on: NCI/ADR-RES
# OVCAR-5 = tested on: OVCAR-5
# RPMI-8226 = tested on: RPMI-8226
# SF-539 = tested on: SF-539
# T47D = tested on: T47D
# TK-10 = tested on: TK-10
# UACC-257 = tested on: UACC-257
# UACC-62 = tested on: UACC-62
# UO-31 = tested on: UO-31
SMILES,GI50 (A549),GI50 (ACHN),GI50 (BT-549),GI50 (CAKI-1),GI50 (DU-145),GI50 (HCT-116),GI50 (HCT-15) [µM],GI50 (HOP-92),GI50 (Hs-578T),GI50 (NCI-H23),GI50 (NCI/ADR-RES),GI50 (OVCAR-5),GI50 (RPMI-8226),GI50 (SF-539),GI50 (T47D),GI50 (TK-10),GI50 (UACC-257),GI50 (UACC-62),GI50 (UO-31)
N=C(/C=C/c1ccc(-c2cn3cc(/C=C/C(=N)N4CCOCC4)ccc3n2)cc1)N1CCOCC1,> 100 µM (inactive),> 100 µM (inactive),> 100 µM (inactive),> 100 µM (inactive),> 100 µM (inactive),> 100 µM (inactive),> 100,> 100 µM (inactive),> 100 µM (inactive),> 100 µM (inactive),> 100 µM (inactive),> 100 µM (inactive),76.4 µM (inactive),> 100 µM (inactive),> 100 µM (inactive),> 100 µM (inactive),> 100 µM (inactive),> 100 µM (inactive),> 100 µM (inactive)
C=CCOc1ccc(C2C(C(=O)OCC)C(=O)CC(C)(O)C2C(=O)OCC)cc1OC (stereo not given),> 100 µM (inactive),> 100 µM (inactive),> 100 µM (inactive),> 100 µM (inactive),> 100 µM (inactive),> 100 µM (inactive),> 100,> 100 µM (inactive),> 100 µM (inactive),> 100 µM (inactive),> 100 µM (inactive),> 100 µM (inactive),> 100 µM (inactive),> 100 µM (inactive),> 100 µM (inactive),> 100 µM (inactive),> 100 µM (inactive),> 100 µM (inactive),> 100 µM (inactive)
CCCN(CCC)C(=S)Sc1nc(C)nc(N2CCN(c3nc(C)nc(SC(=S)N(CCC)CCC)c3[N+](=O)[O-])CC2)c1[N+](=O)[O-],20.7 µM (inactive),13.9 µM (inactive),5.2 µM (inactive),9.16 µM (inactive),26.8 µM (inactive),2.03 µM (inactive),9.4,15.8 µM (inactive),> 63.7 µM (inactive),12.4 µM (inactive),41.5 µM (inactive),23.4 µM (inactive),0.386 µM (active),26.8 µM (inactive),8.2 µM (inactive),20.1 µM (inactive),15.6 µM (inactive),7.94 µM (inactive),17.9 µM (inactive)
COc1ccc(/N=c2\ssc(C(=S)Nc3ccc(OC)cc3)c2S)cc1,83.6 µM (inactive),> 100 µM (inactive),> 100 µM (inactive),> 100 µM (inactive),> 100 µM (inactive),88.1 µM (inactive),64.9,> 100 µM (inactive),> 100 µM (inactive),> 100 µM (inactive),> 100 µM (inactive),> 100 µM (inactive),> 100 µM (inactive),> 100 µM (inactive),> 100 µM (inactive),> 100 µM (inactive),> 100 µM (inactive),> 100 µM (inactive),> 100 µM (inactive)
CCOC(=O)CCC(C(=O)OCC)n1nc2ccc(Nc3c(C)[n+]([O-])c4cc(F)c(OCC)cc4[n+]3[O-])cc2n1 (stereo not given),75.2 µM (inactive),40.2 µM (inactive),34 µM (inactive),> 100 µM (inactive),> 100 µM (inactive),50.8 µM (inactive),> 100,21.4 µM (inactive),26.2 µM (inactive),32.9 µM (inactive),62.1 µM (inactive),> 100 µM (inactive),> 100 µM (inactive),22.5 µM (inactive),66.1 µM (inactive),42.7 µM (inactive),> 100 µM (inactive),36.3 µM (inactive),52.4 µM (inactive)
